{
  "source": "ChEMBL document CHEMBL3797079",
  "about": "“Synergistic reduction of HIV-1 infectivity by 5-azacytidine and inhibitors of ribonucleotide reductase” (Bioorg Med Chem, 2016)",
  "key": {"U373-MAGI [1]": {"system": "U373-MAGI", "assay": "Effect on dRGU-TP level in human U373-MAGI cells at 200 nM preincubated for 2 hrs followed by 5-aza-dC addition measured after 4 hrs by LC-MS/MS analysis", "type": "functional, cell-based"}, "U373-MAGI [2]": {"system": "U373-MAGI", "assay": "Reduction in dCTP level in human U373-MAGI cells at 50 nM preincubated for 2 hrs followed by 5-aza-dC addition measured after 4 hrs by LC-MS/MS analysis relative to 5-aza-dC", "type": "functional, cell-based"}, "U373-MAGI [3]": {"system": "U373-MAGI", "assay": "Reduction in dCTP level in human U373-MAGI cells at 200 nM preincubated for 2 hrs followed by 5-aza-dC addition measured after 4 hrs by LC-MS/MS analysis relative to 5-aza-dC", "type": "functional, cell-based"}, "U373-MAGI [4]": {"system": "U373-MAGI", "assay": "Reduction in dCTP level in human U373-MAGI cells at 50 nM after 6 hrs by LC-MS/MS analysis", "type": "functional, cell-based"}, "U373-MAGI [5]": {"system": "U373-MAGI", "assay": "Reduction in dCTP level in human U373-MAGI cells at 200 nM after 6 hrs by LC-MS/MS analysis", "type": "functional, cell-based"}, "[6]": {"assay": "Reduction in dATP level in human U373-MAGI cells at 50 nM after 6 hrs by LC-MS/MS analysis", "type": "functional", "parameters": "scale not given: the % may be the effect or the level left"}, "U373-MAGI [7]": {"system": "U373-MAGI", "assay": "Reduction in dATP level in human U373-MAGI cells at 200 nM after 6 hrs by LC-MS/MS analysis", "type": "functional, cell-based"}, "U373-MAGI [8]": {"system": "U373-MAGI", "assay": "Effect on 5-aza-dCTP level in human U373-MAGI cells at 50 nM preincubated for 2 hrs followed by 5-aza-dC addition measured after 4 hrs by LC-MS/MS analysis", "type": "functional, cell-based"}, "U373-MAGI [9]": {"system": "U373-MAGI", "assay": "Effect on 5-aza-dCTP level in human U373-MAGI cells at 200 nM preincubated for 2 hrs followed by 5-aza-dC addition measured after 4 hrs by LC-MS/MS analysis", "type": "functional, cell-based"}, "U373-MAGI [10]": {"system": "U373-MAGI", "assay": "Reduction in dCTP level in human U373-MAGI cells at 50 nM preincubated for 2 hrs followed by 5-aza-C addition measured after 4 hrs by LC-MS/MS analysis", "type": "functional, cell-based"}, "U373-MAGI [11]": {"system": "U373-MAGI", "assay": "Reduction in dCTP level in human U373-MAGI cells at 200 nM preincubated for 2 hrs followed by 5-aza-C addition measured after 4 hrs by LC-MS/MS analysis relative to 5-aza-C", "type": "functional, cell-based"}, "U373-MAGI [12]": {"system": "U373-MAGI", "assay": "Effect on dRGU-TP level in human U373-MAGI cells at 50 nM preincubated for 2 hrs followed by 5-aza-dC addition measured after 4 hrs by LC-MS/MS analysis", "type": "functional, cell-based"}, "U373-MAGI [13]": {"system": "U373-MAGI", "assay": "Reduction in dRGU-TP level in human U373-MAGI cells at 50 nM preincubated for 2 hrs followed by 5-aza-C addition measured after 4 hrs by LC-MS/MS analysis", "type": "functional, cell-based"}, "U373-MAGI [14]": {"system": "U373-MAGI", "assay": "Reduction in dRGU-TP level in human U373-MAGI cells at 200 nM preincubated for 2 hrs followed by 5-aza-C addition measured after 4 hrs by LC-MS/MS analysis", "type": "functional, cell-based"}, "U373-MAGI [15]": {"system": "U373-MAGI", "assay": "Increase in 5-aza-dCTP/dCTP ratio in human U373-MAGI cells at 50 nM preincubated for 2 hrs followed by 5-aza-dC addition measured after 4 hrs by LC-MS/MS analysis relative to 5-aza-dC", "type": "functional, cell-based"}, "U373-MAGI [16]": {"system": "U373-MAGI", "assay": "Increase in 5-aza-dCTP/dCTP ratio in human U373-MAGI cells at 200 nM preincubated for 2 hrs followed by 5-aza-dC addition measured after 4 hrs by LC-MS/MS analysis relative to 5-aza-dC", "type": "functional, cell-based"}, "U373-MAGI [17]": {"system": "U373-MAGI", "assay": "Increase in 5-aza-dCTP/dCTP ratio in human U373-MAGI cells at 50 nM preincubated for 2 hrs followed by 5-aza-C addition measured after 4 hrs by LC-MS/MS analysis relative to 5-aza-C", "type": "functional, cell-based"}, "[18]": {"system": "Human immunodeficiency virus 1", "assay": "Potentiation of 5-Aza-C-induced antiviral activity against VSV-G pseudotyped HIV-1 NL4-3 infected in human U373-MAGI cells assessed as decrease in 5-Aza-C EC50 at 50 nM preincubated for 2 hrs followed by 5-Aza-C addition for 2 hrs and subsequent viral infection measured at 72 hrs post infection by flow cytometric analysis relative to control", "type": "functional"}, "[19]": {"system": "Human immunodeficiency virus 1", "assay": "Antiviral activity against VSV-G pseudotyped HIV-1 NL4-3 infected in human U373-MAGI cells assessed as reduction in viral infectivity at 50 nM incubated for 4 hrs prior to viral infection measured at 72 hrs post infection by flow cytometric analysis", "type": "functional, organism-based"}, "[20]": {"assay": "Cytotoxicity against human U373-MAGI cells at 50 nM measured at 72 hrs by Celltiter-Glo luminescent cell viability assay", "type": "cell-based", "settings": "0.05 µM"}, "U373-MAGI [21]": {"system": "U373-MAGI", "assay": "Reduction in dTTP level in human U373-MAGI cells at 50 nM after 6 hrs by LC-MS/MS analysis", "type": "functional, cell-based"}, "U373-MAGI [22]": {"system": "U373-MAGI", "assay": "Increase in 5-aza-dCTP/dCTP ratio in human U373-MAGI cells at 200 nM preincubated for 2 hrs followed by 5-aza-C addition measured after 4 hrs by LC-MS/MS analysis relative to 5-aza-C", "type": "functional, cell-based"}, "U373-MAGI [23]": {"system": "U373-MAGI", "assay": "Reduction in 5-aza-dCTP level in human U373-MAGI cells at 50 nM preincubated for 2 hrs followed by 5-aza-C addition measured after 4 hrs by LC-MS/MS analysis", "type": "functional, cell-based"}, "U373-MAGI [24]": {"system": "U373-MAGI", "assay": "Reduction in dTTP level in human U373-MAGI cells at 200 nM after 6 hrs by LC-MS/MS analysis", "type": "functional, cell-based"}, "U373-MAGI [25]": {"system": "U373-MAGI", "assay": "Reduction in dGTP level in human U373-MAGI cells at 50 nM after 6 hrs by LC-MS/MS analysis", "type": "functional, cell-based"}, "U373-MAGI [26]": {"system": "U373-MAGI", "assay": "Reduction in dGTP level in human U373-MAGI cells at 200 nM after 6 hrs by LC-MS/MS analysis", "type": "functional, cell-based"}, "U373-MAGI [27]": {"system": "U373-MAGI", "assay": "Reduction in 5-aza-dCTP level in human U373-MAGI cells at 200 nM preincubated for 2 hrs followed by 5-aza-C addition measured after 4 hrs by LC-MS/MS analysis", "type": "functional, cell-based"}},
  "note": "Active and inactive are the calls of the source. No cut-off for these calls is given here.",
  "data": [
    {"smiles": "Nc1nc(Cl)nc2c1ncn2[C@@H]1O[C@H](CO)[C@@H](O)[C@@H]1F", "note": "[CLOFARABINE]", "values": [
      {"measurement": "Activity", "setting": "U373-MAGI [1]", "result": "inactive"},
      {"measurement": "Activity", "setting": "U373-MAGI [2]", "result": "Active"},
      {"measurement": "Activity", "setting": "U373-MAGI [3]", "result": "Active"},
      {"measurement": "Activity", "setting": "U373-MAGI [4]", "result": "inactive"},
      {"measurement": "Activity", "setting": "U373-MAGI [5]", "result": "Active"},
      {"measurement": "Activity", "setting": "[6]", "result": 30, "unit": "%"},
      {"measurement": "Activity", "setting": "U373-MAGI [7]", "result": "Active"},
      {"measurement": "Activity", "setting": "U373-MAGI [8]", "result": "inactive"},
      {"measurement": "Activity", "setting": "U373-MAGI [9]", "result": "inactive"},
      {"measurement": "Activity", "setting": "U373-MAGI [10]", "result": "Active"},
      {"measurement": "Activity", "setting": "U373-MAGI [11]", "result": "Active"},
      {"measurement": "Activity", "setting": "U373-MAGI [12]", "result": "inactive"},
      {"measurement": "Activity", "setting": "U373-MAGI [13]", "result": "inactive"},
      {"measurement": "Activity", "setting": "U373-MAGI [14]", "result": "Active"},
      {"measurement": "Activity", "setting": "U373-MAGI [15]", "result": "Active"},
      {"measurement": "Activity", "setting": "U373-MAGI [16]", "result": "Active"},
      {"measurement": "Activity", "setting": "U373-MAGI [17]", "result": "inactive"},
      {"measurement": "fold change (FC)", "setting": "[18]", "result": 2.5},
      {"measurement": "Activity", "setting": "[19]", "result": "Active"},
      {"measurement": "Activity", "setting": "[20]", "result": "Non-toxic"},
      {"measurement": "Activity", "setting": "U373-MAGI [21]", "result": "inactive"},
      {"measurement": "Activity", "setting": "U373-MAGI [22]", "result": "inactive"},
      {"measurement": "Activity", "setting": "U373-MAGI [23]", "result": "inactive"},
      {"measurement": "Activity", "setting": "U373-MAGI [24]", "result": "inactive"},
      {"measurement": "Activity", "setting": "U373-MAGI [25]", "result": "inactive"},
      {"measurement": "Activity", "setting": "U373-MAGI [26]", "result": "Active"},
      {"measurement": "Activity", "setting": "U373-MAGI [27]", "result": "Active"}
    ]}
  ]
}
